Columns and labels:
A431 cells = assay: EGF-FITC labeling of A431 cells by fluorescent microscopy; assay type: cell-based; details: 10 ng/ml, 15 min; reduced by excess unlabeled EGF
Method: (§1) FIGS. 7A-7D show purification and bioactivity validation of EGF-FITC. Purification of FITC-labeled EGF was performed in two sequential steps of desalting (7A) and ion exchange (7B). A431 cultures were incubated with 10 ng/ml for 10 min with native (EGF) and FITC-labeled EGF (EGF-FITC) or left untreated. The phosphorylation of Erk (p-Erk) was evaluated using Western blotting. Total Erk protein (pan-Erk) was measured for internal control purposes to assure loading of equal protein quantities (7C). A431 cells were incubated for 15 min with 10 ng/ml EGF-FITC in the presence or absence of excess unlabeled EGF (500 ng/ml) or left untreated. The cultures were visualized using fluorescent microscopy at 40× magnification (7D).
In order to study the binding of cetuximab-labeled ICG-adsorbed liposomes to cell overexpressing EGFR we prepared FITC-labeled EGF (EGF-FITC) to be used as positive control. EGF-FITC was purified from excess FITC and unlabeled FOP via desalting and ion exchange purification steps. Following desalting, the fraction containing EGF and EGF-FITC was collected (FIG. 7A) and further processed to separate labeled from unlabeled EGF. […] Upon purification of EGF-FITC, the bioactivity of the labeled protein was evaluated. […] Following validation of the bioactivity of the labeled protein, EGF-FITC was used in the next experiments as a positive control.

[1] = tested on: Erk phosphorylation, an EGFR downstream signaling molecule, in A431 cells; assay: EGF-FITC bioactivity: Erk phosphorylation by Western blotting; assay type: cell-based; details: A431 cultures, 10 ng/ml for 10 min
Method: as §1, with “The cultures were visualized using fluorescent microscopy at 40× magnification (7D).” left out
Western blotting was performed as described by Lecht et al. (2010). Briefly, total cellular protein was extracted following lysis of the A431 cells and quantified using the Bradford reagent assay (Bio-Rad, Hercules, Calif., USA). For Western blotting, equal quantities of protein (40 μg) were loaded on 10% polyacrylamide gels, separated by SDS-PAGE (100 V for 1.5 hrs), and transferred on ice to nitrocellulose membranes (90 V for 1.5 hrs) (Whatman, Germany). […]
In order to study the binding of cetuximab-labeled ICG-adsorbed liposomes to cell overexpressing EGFR we prepared FITC-labeled EGF (EGF-FITC) to be used as positive control. […] Upon purification of EGF-FITC, the bioactivity of the labeled protein was evaluated. […]

[2] = Absorption of ICG over time at light and at dark; assay type: physicochemical
Method: Absorbance spectra of the samples were taken using a Cary 100 Biospectrophotometer, in a 1 cm polystyrene cell, and a scan rate of 600 nm/min.
The red shift is accompanied with quenching of fluorescence, i.e., the larger the red shift the lower the fluorescence intensity. Because the fluorescence intensity of ICG-liposomes was greater than that of unbound ICG molecules (aqueous solution), the quantum yield ratio between the two states in which ICG is present was determined, for a concentration of 1.28×10^−3 mM. As mentioned above, ICG is poorly stable in aqueous solutions due to degradation, and therefore, in order to evaluate the stability of the ICG-adsorbed liposomes, the absorption of this fluorescent probe, when dissolved in an aqueous solution or adsorbed to the liposomes, was measured at light and at dark over time.

| Compound | labeling of A431 cells (A431 cells) | Erk phosphorylation [1] | ICG absorption over time [2] |
| --- | --- | --- | --- |
| EGF-FITC: human recombinant EGF covalently labeled with FITC, used as positive control | highly specific labeling | able to induce Erk phosphorylation |  |
| CC1(C)C(/C=C/C=C/C=C/C=C2\N(CCCCS(=O)(=O)[O-])c3ccc4ccccc4c3C2(C)C)=[N+](CCCCS(=O)(=O)[O-])c2ccc3ccccc3c21.[Na+] [ICG, Indocyanine green] |  |  | decreases over time both in light and in dark |
